Experimental data taken from US6376546B1, “Biphenyl-5-alkanoic acid derivatives and use thereof” (Asahi Kasei Kabushiki Kaisha, priority 1997, dated 2002).

Experiments:
[1] = tested on: anti-OVA-IgE antibody production; test: Suppressive effect on mouse in vivo anti-OVA-IgE antibody production; settings: po, 336 h, BALB/c mice immunized with OVA on aluminium hydroxide gel, 100 mg/kg orally once a day for 5 days, serum on day 14, PCA reaction in Wistar rats, read-out: Suppressive rate for IgE antibody production (%)
Protocol: BALB/c mice, female, 7 weeks old, 7 mice in a group, and 9-11 mice in control group, were used for tests.
Suppressive effect of the compound of the present invention on IgE antibody production was evaluated according to a method described in the reference, Levin and Vaz, International Archives of Allergy and Applied Immunology, 39: 156, 1970. Immunization was performed by intraperitoneally administering aluminium hydroxide gel (4 mg, PIERCE Inc.) adsorbed with egg albumin (OVA; Sigma Inc.) 10 μg in mice. Test compounds were suspended or dissolved in water containing 0.5% carboxymethyl cellulose, and administered orally to test animals, 100 mg/kg, immediately after immunization, once a day for 5 days. Water containing 0.5% carboxymethyl cellulose without addition of test compound was administered to the control group.
On day 14 after the immunization, blood was collected, and passive cutaneous anaphylaxis (PCA) reaction was performed according to the method described in the reference, Ovary et al. International Archives of Allergy and Applied Immunology, 48: 16, 1975, to determine the antibody production. Serum 0.1 ml, which was serially twofold diluted with physiological saline, was injected intracutaneously in the back of Wistar rats, male, 8 weeks old. After 24 hours, 0.5% Evans blue physiological saline solution, which contains OVA 2 mg, 1 ml was injected intravenously to determine the serum boundary concentration of pigment infiltration.
Suppressive rate for IgE antibody production is determined by the following equation.
Suppressive rate for IgE antibody production (%) [formula]

[2] = tested on: immediate type allergic foot-pad reaction; test: Suppression of mouse in vivo foot-pad reaction; settings: BALB/c mice immunized by egg albumin; oral 3-100 mg/kg once a day for 5 days; compared with the positive control
Protocol: BALB/c mice, female, 7 weeks old, 5 mice in a group for test group and 12-14 mice for control group were used for tests.
Effect of the compounds of the present invention on suppression of mouse in vivo foot-pad reaction is evaluated by the following method.
Mice were immunized by administering intraperitoneally 4 mg of aluminium hydroxide gel, which was adsorbed with OVA 5 μg. Test compounds were suspended or dissolved in water containing 0.5% carboxymethyl cellulose, and were administered to test animals orally at 3-100 mg/kg, once a day, for 5 days, from immediately after immunization. For control groups, water containing 0.5% carboxymethyl cellulose without addition of the test compound was administered.
After 10 days of immunization, OVA 10 μg was injected into the hindlim pads of mice to induce immediate type allergic foot-pad reaction. Control groups were divided into tow groups. The one was injected OVA to induce allergic foot-pad reaction for positive control, and the other was injected physiological saline for negative control. After 30 minutes, foot-pad volume of hidlimb of mice was measured by using Plethysmometer (Unicom Co.) to determine increased rate for comparison before induction of foot-pad reaction.
Suppressive rate for foot-pad reaction is obtained by the following equation.
Suppressive rate for foot-pad reaction (%) [formula]
A: increased rate of foot-pad reaction in positive control group,
B: increased rate of foot-pad reaction in negative control group,
C: increased rate of foot-pad reaction in test group (test compound administered group).

Row | SMILES | inhibition in vivo at 100 mg/kg [1] [%] | suppressive action against immediate type allergic foot-pad reaction [2]
1 | C=CCOc1ccc(-c2cc(CCC(=O)OC)ccc2OCc2ccccc2)cc1 [Control(2), Methyl 3-(4′-allyloxy-2-benzyloxy-1,1′-biphenyl-5-yl)propionate, reference compound] | -11.6 | 
2 | NC(=O)COc1ccc(CCCC(=O)O)cc1-c1ccccc1 [Compound(47), 4-(2-carbamoylmethyloxy-1,1′-biphenyl-5-yl)butyric Acid] | 65.7 | significant suppressive action
3 | CCCCOc1ccc(CCC(=O)O)cc1-c1ccccc1 [Compound(01), 3-(2-butoxy-1,1′-biphenyl-5-yl)propionic acid] | 72.3 | 
4 | CCCCOc1ccc(CCCC(N)=O)cc1-c1ccccc1 [Compound(55), 4-(2-butoxy-1,1′-biphenyl-5-yl)butyramide] | 55.7 | significant suppressive action
5 | NC(=O)Nc1cc(CCC(=O)O)cc(-c2ccccc2)c1OCC1CCCCC1 [Compound(22), 3-(3-carbamoylamino-2-cyclohexylmethyloxy-1,1′-biphenyl-5-yl)propionic Acid] | 48.1 | significant suppressive action
6 | CCCCOc1c(NC(C)=O)cc(CCC(=O)O)cc1-c1ccccc1 [Compound(15), 3-(3-acetylamino-2-butoxy-1,1′-biphenyl-5-yl)propionic Acid] | 64.2 | 
7 | O=C(O)CCc1ccc(OC2CCCC2)c(-c2ccccc2)c1 [Compound(04), 3-(2-cyclopentyloxy-1,1′-biphenyl-5-yl)propionic Acid] | 45.5 | significant suppressive action
8 | O=C(O)CCCOc1ccc(CCCC(=O)O)cc1-c1ccccc1 [Compound(46), 4-[2-(3-carboxypropyloxy)-1,1′-biphenyl-5-yl]butyric Acid] | 64.6 | 
9 | O=C(O)CCc1ccc(OCC(=O)O)c(-c2ccccc2)c1 [Compound(12), 3-(2-carboxymethyloxy-1,1′-biphenyl-5-yl)propionic acid] | 50.8 | 
10 | CC1(C)CCC(C)(C)c2cc(COc3ccc(C(=O)O)cc3-c3ccccc3)ccc21 [Control(3), [2-(5,6,7,8-tetrahydro-5,5,8,8-tetramethyl-2-naphthalenyl)methyloxy-1,1′-biphenyl-5-yl]carboxylic acid, reference compound] | -2.8 | 
11 | CC1(C)CCC(C)(C)c2cc(COc3cccc(CCC(=O)O)c3-c3cccc(C(=O)O)c3)ccc21 [Control(4), 3-[3′-carboxy-2-(5,6,7,8-tetrahydro-5,5,8,8-tetramethyl-2-naphthalenyl)methyloxy-1,1′-biphenyl-6-yl]propionic acid, reference compound] | -8.4 | 
12 | CCCCCOc1ccc(CCCC(=O)O)cc1-c1ccccc1 [Compound(31), 4-(2-pentyloxy-1,1′-biphenyl-5-yl)butyric Acid] | 49.8 | 
13 | CCCCOc1c(NC(C)=O)cc(CCCC(=O)O)cc1-c1ccccc1 [Compound(52), 4-(3-acetylamino-2-butoxy-1,1′-biphenyl-5-yl)butyric Acid] | 64.2 | 
14 | CCCCOc1ccc(-c2ccccc2)cc1CCCC(=O)O [Control(6), 4-(4-butoxy-1,1′-biphenyl-3-yl)butyric acid, reference compound] | 7.3 | 
15 | O=C(O)CCc1ccc(OCC2CCCCC2)c(-c2ccc(O)cc2)c1 [Compound(25), 3-(2-cyclohexylmethyloxy-4′-hydroxy-1,1′-biphenyl-5-yl)propionic Acid] | 45.5 | significant suppressive action
16 | O=C(O)CCCc1ccc(OCCC(=O)O)c(-c2ccccc2)c1 [Compound(45), 4-[2-(2-carboxyethyloxy)-1,1′-biphenyl-5-yl]butyric Acid] | 57 | 
17 | CCCCCOc1ccc(CCC(=O)O)cc1-c1ccccc1 [Compound(03), 3-(2-pentyloxy-1,1′-biphenyl-5-yl)propionic Acid] | 50.9 | 
18 | O=C(O)CCCc1ccc(OCC(=O)O)c(-c2ccccc2)c1 [Compound(44), 4-(2-carboxymethyloxy-1,1′-biphenyl-5-yl)butyric Acid] | 71.5 | significant suppressive action
19 | CCCCOc1ccc(CCCC(=O)NCC)cc1-c1ccccc1 [Control(5), N-ethyl-4-(2-butoxy-1,1′-biphenyl-5-yl)butyramide, reference compound] | -2.5 | 
20 | CCC(O)COc1ccc(CCC(=O)O)cc1-c1ccccc1 (centres unmarked) [Compound(08), 3-[2-(2-hydroxybutyloxy)-1,1′-biphenyl-5-yl]propionic acid] | 58.9 | 
21 | CC(C)COc1ccc(CCCC(=O)O)cc1-c1ccccc1 [Compound(29), 4-(2-isobutoxy-1,1′-biphenyl-5-yl)butyric Acid] | 55.7 | 
22 | O=C(O)CCc1ccc(OCC2CCCCC2)c(-c2ccccc2)c1 [Compound(07), 3-(2-cyclohexylmethyloxy-1,1′-biphenyl-5-yl)propionic Acid] | 62 | significant suppressive action
23 | CCCCOc1ccc(CCCC(=O)O)cc1-c1ccccc1 [Compound(28), 4-(2-butoxy-1,1′-biphenyl-5-yl)butyric Acid] | 44.5 | significant suppressive action
24 | COc1ccc(CCC(=O)O)cc1-c1ccccc1 [Control(1), 3-(2-methoxy-1,1′-biphenyl-5-yl)propionic acid, reference compound] | -14.4 | 
